Results from doi:10.1101/2025.03.14.643404, “A Bivalent Molecular Glue Linking Lysine Acetyltransferases to Oncogene-induced Cell Death” (bioRxiv, 2025).

Biological target: T1, CBP (Homo sapiens, UniProt Q92793)
T1 construct: endogenous in cells; host or cells: SUDHL5
Experiment: Global proteome profiling in SUDHL5, CBP abundance
Type: cell-based
Details: SUDHL5, 10 nM, 24 hours
Method: SUDHL5 cells (6M cells in 6 mL RPMI-1640 media supplemented with 10% FBS and 1x pen-strep) were treated with 0.1% DMSO, 10 nM TCIP3, 10 nM Neg1, 10 nM Neg2, or 250 nM dCBP1 (1000x stocks in DMSO for final 0.1% DMSO concentration) in 3 biologically independent replicates. The cells were washed twice with TBS (50 mM Tris, pH 8.5, and 150 mM NaCl) and then stored at −80 °C until use.
Lysis was performed by first thermally denaturing the samples in residual wash buffer for 5 min at 95 °C. Fresh Lysis Buffer (8 M urea, 150 mM NaCl, and 100 mM HEPES, pH 8.0, in MS-grade water) was then added, and the lysates were homogenized using needle ultrasonication and then normalized to 30 μg of 2 mg/mL by diluting with Lysis Buffer via a Bradford protein concentration assay (Bio-Rad 5000006) in technical duplicates. […]
Samples were then desalted using SOLAμ SPE HRP Peptide Desalting columns (Thermo 60209–001) with a Positive Pressure Manifold and all MS-grade reagents. […] The samples were then reconstituted in 0.1% FA in water and then analyzed by LC-MS/MS (see below).
The reconstituted desalted peptides were then analyzed using a nanoElute 2 UHPLC (Bruker Daltonics, Bremen, Germany) coupled to a timsTOF HT (Bruker Daltonics, Bremen, Germany) via a CaptiveSpray nano-electrospray source. […]

T1 sequence (Q92793 whole entry): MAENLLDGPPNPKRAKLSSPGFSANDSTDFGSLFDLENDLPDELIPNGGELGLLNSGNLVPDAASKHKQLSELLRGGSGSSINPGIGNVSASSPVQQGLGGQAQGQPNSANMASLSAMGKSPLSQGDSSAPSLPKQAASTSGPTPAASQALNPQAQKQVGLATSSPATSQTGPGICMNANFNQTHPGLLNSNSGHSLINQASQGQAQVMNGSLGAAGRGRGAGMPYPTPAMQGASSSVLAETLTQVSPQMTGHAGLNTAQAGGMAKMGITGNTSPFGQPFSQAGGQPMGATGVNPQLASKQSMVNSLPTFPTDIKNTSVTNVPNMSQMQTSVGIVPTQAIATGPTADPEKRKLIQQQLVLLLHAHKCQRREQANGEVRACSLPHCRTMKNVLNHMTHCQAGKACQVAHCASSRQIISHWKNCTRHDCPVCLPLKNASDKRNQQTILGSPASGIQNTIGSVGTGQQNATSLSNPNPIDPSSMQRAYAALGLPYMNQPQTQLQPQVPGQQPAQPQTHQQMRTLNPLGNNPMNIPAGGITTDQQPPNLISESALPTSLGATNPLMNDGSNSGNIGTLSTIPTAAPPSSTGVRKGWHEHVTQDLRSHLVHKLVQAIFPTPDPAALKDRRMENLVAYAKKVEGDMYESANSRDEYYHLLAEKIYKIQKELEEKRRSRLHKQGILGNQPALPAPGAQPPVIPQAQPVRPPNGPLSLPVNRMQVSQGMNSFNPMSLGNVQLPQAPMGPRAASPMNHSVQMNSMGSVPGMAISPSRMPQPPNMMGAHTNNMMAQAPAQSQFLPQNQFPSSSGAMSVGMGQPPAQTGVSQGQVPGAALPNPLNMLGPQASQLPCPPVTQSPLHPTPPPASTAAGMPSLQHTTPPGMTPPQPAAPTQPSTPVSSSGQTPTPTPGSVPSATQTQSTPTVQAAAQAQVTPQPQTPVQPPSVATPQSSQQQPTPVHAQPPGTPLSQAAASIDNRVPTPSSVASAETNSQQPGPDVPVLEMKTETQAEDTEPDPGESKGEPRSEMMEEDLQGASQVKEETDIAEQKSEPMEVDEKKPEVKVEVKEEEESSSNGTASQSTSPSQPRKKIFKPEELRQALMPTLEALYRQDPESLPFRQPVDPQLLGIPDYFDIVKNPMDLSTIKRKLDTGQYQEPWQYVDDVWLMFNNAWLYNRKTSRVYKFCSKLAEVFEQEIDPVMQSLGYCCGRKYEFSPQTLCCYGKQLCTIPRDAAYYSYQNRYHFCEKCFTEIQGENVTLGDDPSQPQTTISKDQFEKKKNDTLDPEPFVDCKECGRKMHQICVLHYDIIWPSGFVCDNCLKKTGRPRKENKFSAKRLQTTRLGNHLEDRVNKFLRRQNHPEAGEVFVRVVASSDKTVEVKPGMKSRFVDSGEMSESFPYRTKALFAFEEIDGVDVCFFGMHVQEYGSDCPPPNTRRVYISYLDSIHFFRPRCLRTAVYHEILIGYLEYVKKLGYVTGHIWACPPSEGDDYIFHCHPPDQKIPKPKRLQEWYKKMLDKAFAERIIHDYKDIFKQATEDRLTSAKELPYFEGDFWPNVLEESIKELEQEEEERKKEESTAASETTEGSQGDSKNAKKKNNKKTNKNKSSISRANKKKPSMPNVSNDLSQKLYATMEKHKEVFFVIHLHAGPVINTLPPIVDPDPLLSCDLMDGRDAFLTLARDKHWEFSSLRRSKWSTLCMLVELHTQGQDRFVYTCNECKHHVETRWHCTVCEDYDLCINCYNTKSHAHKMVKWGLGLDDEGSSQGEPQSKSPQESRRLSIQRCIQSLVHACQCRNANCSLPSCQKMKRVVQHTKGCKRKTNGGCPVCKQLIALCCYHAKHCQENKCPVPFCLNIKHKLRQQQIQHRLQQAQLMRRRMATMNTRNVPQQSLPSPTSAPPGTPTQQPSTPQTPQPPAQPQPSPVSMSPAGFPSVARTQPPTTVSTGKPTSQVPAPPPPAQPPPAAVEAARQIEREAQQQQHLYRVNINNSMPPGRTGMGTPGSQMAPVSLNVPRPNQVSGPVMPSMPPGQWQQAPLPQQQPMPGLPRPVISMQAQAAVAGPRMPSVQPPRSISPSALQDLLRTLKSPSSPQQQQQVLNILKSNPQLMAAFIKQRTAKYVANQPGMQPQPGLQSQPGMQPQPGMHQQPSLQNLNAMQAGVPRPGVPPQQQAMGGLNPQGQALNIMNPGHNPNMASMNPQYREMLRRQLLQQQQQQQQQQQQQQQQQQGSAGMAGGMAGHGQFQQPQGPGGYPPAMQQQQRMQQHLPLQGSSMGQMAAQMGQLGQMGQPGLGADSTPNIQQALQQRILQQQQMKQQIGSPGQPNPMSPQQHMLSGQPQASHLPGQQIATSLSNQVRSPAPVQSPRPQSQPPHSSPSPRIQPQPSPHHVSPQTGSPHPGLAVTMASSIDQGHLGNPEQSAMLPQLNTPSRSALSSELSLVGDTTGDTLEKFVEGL

## CNC(=O)COc1cc2cc(Nc3nc(N4CCC(C(=O)N5CCN(CCC(=O)N6CCC(n7nc(N8CCCc9cc(-c%10cnn(C)c%10)c(C(F)F)cc98)c8c7CCN(C(=O)NC)C8)CC6)CC5)CC4)ncc3Cl)cc(OC)c2n(C)c1=O [TCIP3]
  CBP protein abundance log2(fold change): 0.58
